One assay deals with validated targets. Put plainly: Target identification in cell lysate: BARS probe, diboron activation, streptavidin pulldown, immunoblot against validated targets. It counts as binding. The note with it: K562 (24′a) or HepG2 (26′a) cell lysate; probe 1 μM, B2(OH)4 100 μM 10 min. How it is done: The click-modified cell lysate (3 mg) was transferred to 15 mL centrifuge tubes and precipitated via methanol/chloroform precipitation using the following protocol. Methanol (6 mL) was added to the lysate and vortexed. Chloroform (1.5 mL) was subsequently added and vortexed. Finally, water (4 mL) was added and vortexed. The samples were centrifuged (3000×g, 5 min, 4° C.). The top aqueous layer was removed, and methanol (8 mL) was subsequently added and vortexed. The samples were centrifuged (3000×g, 5 min, 4° C.), the supernatant was removed, and the methanol wash was repeated once more. […]
Samples were loaded onto a Bio-Rad Mini-PROTEAN® TGX™ Precast Protein 15-well gel, 4-20% (15 μL) alongside All Blue Prestained Protein Standard (Bio-Rad, 5 μL) as a ladder, and run in freshly prepared Tris-glycine running buffer (180 V, 45 min). The gel was washed (3×50 mL deionized water) and transferred to a […] low fluorescence PVDF membrane (Bio-Rad) using a semi-dry transfer apparatus (Bio-Rad Trans-Blot® Turbo™ Transfer System) and preprogrammed transfer setting (1.3 A, 25 V, 10 min). […]
Enamine N-oxide probe (15 μL; 200 nM or 1 μM final concentration for probe 21′a, […] for probes 22′a-26′a) was added to a microcentrifuge tube containing cell lysate (3 mg, as determined by BCA assay) suspended in cold NP40 lysis buffer (1.455 mL). […]
(In general: In western blotting, separated proteins are transferred to a membrane and probed.)

Assay [1] has as its target T1, carbonic anhydrase (CA) (Bos taurus, UniProt P00921). Put plainly: Ligand-directed labeling of equimolar recombinant BSA/CA mixture, in-gel fluorescence. It counts as binding. The settings on record: equimolar BSA and CA; probe 200 nM, B2(OH)4 100 μM, 10 min, PBS pH 7.4.
Experimental: An equimolar suspension of recombinant BSA and recombinant CA was prepared by combining BSA (22 μg, 1 mg/mL in PBS, pH 7.4) and CA (10 pg, 1 mg/mL in PBS, pH 7.4) in PBS, pH 7.4 (1 mL). This was approximately 333 nM of each protein. For each reaction, an aliquot of this mixture (97 μL) was added to a microcentrifuge tube. […] Sulfonamide competitor (21′, 1 μL, 5 mM solution in 1% DMSO/PBS; 50 μM final concentration) or PBS, pH 7.4 (1 μL) vehicle control was added to the samples. The tubes were incubated at rt for 30 min. Tetrahydroxydiboron (1 μL, 10 mM solution; 100 μM final concentration) was subsequently added with gentle mixing. The tubes were incubated at rt for an additional 10 min. Subsequently, CuAAC click-cocktail solution containing TAMRA-azide (6 μL) was added and the tubes were incubated at rt in the dark for 1 h.
For sample preparation, 5× sample loading buffer (25 μL) was added directly to the TAMRA-modified BSA/CA samples. The samples were subsequently heated to 95° C. for 10 min and then subjected to SDS-PAGE and in-gel fluorescence imaging. In-gel fluorescence imaging was performed on a Typhoon™ FLA 9500 (GE) at 532 nm with photomultiplier tube (PMT) setting of 300 V.
For assay [2], the target named is T2, CA2 (Homo sapiens, UniProt P00918).
T2 construct: endogenous in cells; host or cells: HEK293T
Put plainly: Labeling of endogenous CA in HEK293T cell lysate, streptavidin blot or pulldown and immunoblot against CA2. It counts as binding. The settings on record: probe 200 nM; diboron 100 μM 10 min or UV irradiation 10 min.
Experimental: For sample preparation, 5× sample loading buffer was added directly at least 10 μg aliquot of the clicked cell lysate clicked with biotin (picolyl) azide. The samples were subsequently heated to 95° C. for 10 min and loaded onto a BioRad Mini-PROTEAN® TGX™ Precast Protein gel, 4-20% (15 μL) and run in freshly prepared Tris-glycine running buffer (160 V, 50 min). The gel was washed (3×DI water) and transferred to a 0.2 μm PVDF membrane. After transfer, the membrane was washed (3×TBST) and blocked with 5% fish skin gelatin (or any appropriate blocking buffer for Western blot) in TBST (rt, 1 h), and subsequently incubated with the appropriate primary antibody (1:1000 dilution in 5% fish skin gelatin in TBST, rt, 1 h). The membrane was washed (3×TBST) and incubated with the appropriate secondary antibody (1:10000 dilution in 5% fish gelatin in TBST, rt, 1 h). The membrane was again washed thoroughly with TBST and imaged using a chemiluminescence imager (Amersham™ Imager 600, GE).
Samples were loaded onto a Bio-Rad Mini-PROTEAN® TGX™ Precast Protein 15-well gel, 4-20% (15 μL) alongside All Blue Prestained Protein Standard (Bio-Rad, 5 μL) as a ladder, and run in freshly prepared Tris-glycine running buffer (180 V, 45 min). The gel was washed (3×50 mL deionized water) and transferred to a 0.2 m low fluorescence PVDF membrane (Bio-Rad) using a semi-dry transfer apparatus (Bio-Rad Trans-Blot® Turbo™ Transfer System) and preprogrammed transfer setting (1.3 A, 25 V, 10 min).

Assay [3] deals with T2, CA2. Put plainly: In cellulo BARS labeling in live HEK293T cells, immunoblot against CA2. It counts as cell-based. The note with it: probe 5 μM 2 h, wash, B2(OH)4 100 μM 10 min. How it is done:
HEK293T cells were cultured in DMEM containing 10% FBS (Sigma), 100 units/mL penicillin, and 0.1 mg/mL streptomycin (Sigma) in a humidified chamber at 37° C. under an ambient atmosphere with 5% CO2. After culturing to >80% confluency in 150 mm plates, the plates were removed from the incubator, the media was aspirated, and the cells were trypsinized at 37° C. with 0.25% trypsin, 0.1% EDTA in HBSS (3 mL). After 3 min, complete growth medium (7 mL) was added to the detached cells, and the cell suspension was transferred to a 50 mL centrifuge tube. Cells were pelleted (400×g, 4 min, 23° C.) and washed with 2×20 mL PBS, pH 7.4. At this point, the density of the cell suspension in PBS was determined by the trypan blue exclusion method. The cells were pelleted once more, and the volume of PBS was adjusted to produce a cell suspension with a final density of 2×10^7 cells/mL. The cell suspension was aliquoted into 2 mL microcentrifuge tubes (3×1 mL, 2×10^7 cells each). […] Competitor 21′ (50 μM final concentration, from a 500 mM stock in DMSO) was also added to the third tube. The samples were incubated at 37° C. with end-over-end rotation. After 2 h of incubation, the cells were pelleted (400×g, 4 min, 23° C.) and washed once with PBS, pH 7.4.

Another assay concerns the target T3, carbonic anhydrase (Bos taurus, UniProt P00921).
T3 construct: purchased MP Biomedicals; host or cells: bovine erythrocytes
Put plainly: Labeling site identification on recombinant carbonic anhydrase by nano-LC-MS/MS. Also noted: species or system bovine. The settings on record: probe 10 μM, B2(OH)4 100 μM. As to the method: BARS probe 21′a: Enamine N-oxide 21′a (10 μL, 500 μM in PBS, pH 7.4; 10 μM final concentration) was added to an aliquot of recombinant CA from bovine erythrocytes ([…], MP Biomedicals) suspended in 480 μL PBS, pH 7.4 in a microcentrifuge tube and incubated at rt for 30 min. Tetrahydroxydiboron (10 μL, 5 mM in PBS, pH 7.4; 100 μM final concentration) was subsequently added and gently mixed. The tubes were incubated at rt for an additional 10 min. Subsequently, the sample was concentrated via spin filtration (Amicon® Ultra-0.5 mL, UFC500324, 10 kDa MWCO) following the manufacturer's recommended protocol. PBS was added after each filtration cycle and the concentration was repeated for a total of five times. The eluate was collected in a clean microcentrifuge tube and its concentration determined by NanoDrop (Thermo Fisher Scientific™).
An aliquot of carbonic anhydrase labeled with enamine N-oxide 21′a (prepared from the above procedure) was reduced with dithiothreitol (10 mM final concentration, 56° C., 30 min), alkylated with iodoacetamide (22.5 mM final concentration, rt, 30 min protected from light), and digested overnight with Glu-C (1:20) at 37° C. in 100 mM ammonium bicarbonate. Peptides were desalted using SP3 beads and analyzed by nano-LC-MS/MS using a nanoAcquity UPLC system interfaced to a QExactive HF mass spectrometer (Ficarro et al., Anal. Chem., 9:3440-3447 (2009)). […]

Assay [4] addresses T1, carbonic anhydrase (CA). Nature of the assay: Intact mass spectrometry of recombinant carbonic anhydrase labeled with probe. The note with it: for labeling of CA (intact mass spectrometry): probe 10 μM, B2(OH)4 100 μM or UV irradiation 10 min. In kind it is binding, bovine. Also noted: purchased MP Biomedicals; host or cells: bovine erythrocytes. How it is done: Tetrahydroxydiboron (10 μL, 5 mM in PBS, pH 7.4; 100 μM final concentration) was subsequently added and gently mixed. The tubes were incubated at rt for an additional 10 min. Subsequently, the sample was concentrated via spin filtration (Amicon® Ultra-0.5 mL, UFC500324, 10 kDa MWCO) following the manufacturer's recommended protocol. PBS was added after each filtration cycle and the concentration was repeated for a total of five times. The eluate was collected in a clean microcentrifuge tube and its concentration determined by NanoDrop (Thermo Fisher Scientific™).
The samples were then transferred onto a 24-well plate and UV irradiated (365 nm) for 10 min on ice. After every 2 min of irradiation, the plate was rotated […] to ensure complete and equal UV exposure. After irradiation, the samples were transferred to a spin filtration column (Amicon® Ultra-0.5 mL, UFC500324, 10 kDa MWCO) and concentrated following the manufacturer's recommended protocol. PBS was added after each filtration cycle, and the concentration was repeated for a total of five times. The eluate was collected in a clean microcentrifuge tube and its concentration determined by NanoDrop (Thermo Fisher Scientific™).
Replicate samples of carbonic anhydrase (n=4; labeled with enamine N-oxide 21′a or diazirine 21′b) were desalted on a self-packed column (500 μm I.D. fused silica packed with 5 cm POROSR2 resin) and gradient eluted (0→100% B in 1 min, A=200 mM acetic acid in water, B=200 mM acetic acid in acetonitrile) to the mass spectrometer (LTQ XL mass spectrometer, Thermo Fisher Scientific; spray voltage=5 kV). The mass spectrometer recorded full scan profile spectra n z 300-2000. Mass spectra were deconvoluted using MagTran version 1.03b2 (Zhang et al., J. Am. Chem. Soc. Mass. Spectrom., 3:225-244 (1998)). Percent labeling was calculated as intensity labeled protein/(intensity unlabeled protein+intensity labeled protein)×100%.

Entries after “also recorded” stand apart in the source; their conditions may differ.

T1 sequence (P00921 whole entry): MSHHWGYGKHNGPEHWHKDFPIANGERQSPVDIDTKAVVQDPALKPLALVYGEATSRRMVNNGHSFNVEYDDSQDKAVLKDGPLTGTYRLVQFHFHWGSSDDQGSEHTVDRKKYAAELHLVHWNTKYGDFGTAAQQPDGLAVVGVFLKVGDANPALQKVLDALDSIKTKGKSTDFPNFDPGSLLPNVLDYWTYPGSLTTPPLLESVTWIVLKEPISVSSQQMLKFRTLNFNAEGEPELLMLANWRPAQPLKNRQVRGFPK
T3 sequence (P00921 whole entry): as above

Regarding `C#CCCC[N+](C)([O-])/C(Br)=C/C(Cl)CCCC(=O)NCCCCCCNc1cc(Nc2ncc(C(=O)Nc3c(C)cccc3Cl)s2)nc(C)n1` (centres unmarked) [24′a, (Z)-1-Bromo-3-chloro-7-((6-((6-((5-((2-chloro-6-methylphenyl)carbamoyl)thiazol-2-yl)amino)-2-methylpyrimidin-4-yl)amino)hexyl)amino)-N-methyl-7-oxo-N-(pent-4-yn-1-yl)hept-1-en-1-amine oxide], the “additional targets pulled down” value in the assay on validated targets was “ABL and p38 pulled down”.
As to `C#CCCC[N+](C)([O-])C(Br)=CC(Cl)CCCC(=O)NCCCOCCOCCOCCCNC(=O)c1ccc(S(N)(=O)=O)cc1` (centres unmarked) [21′a, 23-Bromo-21-chloro-N-methyl-1,17-dioxo-N-(pent-4-yn-1-yl)-1-(4-sulfamoylphenyl)-6,9,12-trioxa-2,16-diazatricos-22-en-23-amine oxide], the “selectivity of labeling, CA over BSA” value on carbonic anhydrase (CA) [1] is given as “CA was preferentially labeled over BSA”. Moreover, the “labeling of endogenous CA in HEK293T cell lysate” value on CA2 [2] is recorded as “could also be labeled; also recorded: superior labeling”. For the same compound, the “target identification in live HEK293T cells (CA2)” value on CA2 [3] is listed as “positively identified”. In addition, the “labeling sites on CA N-terminal peptide” value at carbonic anhydrase is given as “His2 or His3”. Further, at carbonic anhydrase (CA) [4] (51.8% vs 3.6% labeling), the “improvement of CA labeling, enamine N-oxide over diazirine” value was 14.4 fold. Besides, the “labeling of CA (intact mass spectrometry)” value at carbonic anhydrase (CA) [4] came out at 51.8%.
Consider `C#CCCC1(CCNC(=O)CCOCCOCCOCCNC(=O)c2ccc(S(N)(=O)=O)cc2)N=N1` [21′b, N-(15-(3-(but-3-yn-1-yl)-3H-diazirin-3-yl)-12-oxo-3,6,9-trioxa-13-azapentadecyl)-4-sulfamoylbenzamide, reference compound], for which, at carbonic anhydrase (CA) [4], the “labeling of CA (intact mass spectrometry)” value is given as 3.6%.
For `CCN(CC)C(=O)C=CCCc1ccccc1` [compound 13, reference compound], the “labeling of endogenous CA in HEK293T cell lysate” value on CA2 [2] is given as “barely perceptible”. Moreover, the “protein labeled (intact mass spectrometry of CA)” value at carbonic anhydrase (CA) [4] (N-oxide probe plus diboron or diazirine probe plus UV irradiation) is given as < 1%.
`C#CCCC[N+](C)([O-])/C(Br)=C/C(Cl)CCCC(=O)N(C)[C@@H]1C[C@H]2O[C@@](C)([C@@H]1OC)n1c3ccccc3c3c4c(c5c6ccccc6n2c5c31)C(=O)NC4` (stereo partly drawn) [26′a, (Z)-1-Bromo-3-chloro-7-(((5S,6R,7R,9R)-6-methoxy-5-methyl-14-oxo-6,7,8,9,15,16-hexahydro-5H,14H-17-oxa-4b,9a,15-triaza-5,9-methanodibenzo[b,h]cyclonona[jkl]cyclopenta[e]-as-indacen-7-yl)(methyl)amino)-N-methyl-7-oxo-N-(pent-4-yn-1-yl)hept-1-en-1-amine oxide]: in the assay on validated targets, the “additional targets pulled down” value is “PKC and SRC pulled down”.

(Values after patent US20260176274A1, “ENAMINE N-OXIDE TOOLS FOR TARGET IDENTIFICATION APPLICATIONS” (DANA-FARBER CANCER INSTITUTE, INC., priority 2022, published 2026).)
